Laboratory results as given in patent US20090099243A1, “ORGANIC COMPOUNDS” (priority 2007, published 2009).

How the values were obtained:
[1] = test system: ethanol self-administration in rats; conditions: icv administration; cited from earlier work
[2] = molecular target: T1, recombinant human NPY Y2 receptors (Homo sapiens, UniProt P49146); test: Scintillation proximity [35S]GTPγS binding assay (inhibition of 0.5 nM NPY-stimulated [35S]GTPγS binding); assay type: biochemical; conditions: 10 μM compound, CHO-C4 membranes, read-out: [%] inhibiton at 10 μM
T1 construct: expressed in transfected cells; host or cells: CHO-C4 cells (membrane preparation)
T1 sequence (P49146 1-381): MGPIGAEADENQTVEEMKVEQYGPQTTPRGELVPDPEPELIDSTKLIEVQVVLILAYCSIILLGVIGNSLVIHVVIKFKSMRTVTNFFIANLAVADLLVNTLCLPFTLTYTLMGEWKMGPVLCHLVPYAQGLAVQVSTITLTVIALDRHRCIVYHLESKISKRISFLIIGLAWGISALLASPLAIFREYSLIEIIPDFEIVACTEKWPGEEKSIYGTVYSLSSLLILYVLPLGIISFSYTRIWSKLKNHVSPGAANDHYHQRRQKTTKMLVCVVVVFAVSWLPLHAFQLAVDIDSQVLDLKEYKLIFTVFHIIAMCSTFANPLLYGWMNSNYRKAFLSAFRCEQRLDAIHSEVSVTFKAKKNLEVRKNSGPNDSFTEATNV
Experimental: Preparation of Membranes: CHO—C4 cells expressing recombinant human NPY Y2 receptors were used to prepare membranes for the GTPγS assay. Cells were grown to 80-95% confluency on 15-cm (225 cm^2) tissue culture plates. After aspiration of the culture medium, cells were washed twice with 18 ml ice-cold phosphate-buffered saline (PBS), scraped off and suspended in 3 ml ice-cold PBS in pre-cooled centrifuge tubes. The dishes were rinsed with 2 ml ice-cold PBS per dish and the washings were combined with the PBS cell suspension from above. Cells pooled from 5-7 dishes were centrifuged for 5 min at 10,000 rpm (12,000 g) in a Sorvall RC5B centrifuge using an SS34 rotor at 4° C. The cell pellet was resuspended in 5 ml ice-cold buffer (20 mM HEPES, 10 mM EDTA; pH 7.4) by vortexing (2-5 sec), homogenized using a Polytron (step 4 for 20-30 sec), and ice-cold buffer added to 25 ml. The suspension was centrifuged again for 20 min at 18,000 rpm (39,000 g) at 4° C. and the pellet resuspended in 5 ml ice-cold buffer (20 mM HEPES, 0.1 mM EDTA; pH 7.4) by vortexing (2-5 sec), homogenized with a Polytron (step 4 for 10 sec), and ice-cold buffer added to 25 ml. The suspension was centrifuged a third time for 20 min at 18,000 rpm (39,000 g) at 4° C. The pellet was resuspend in 1 ml ice-cold buffer (20 mM Hepes, 0.1 mM EDTA; pH 7.4) by vortexing (5-8 sec). Two to five resuspended pellets were combined and homogenized using a Polytron (step 4 for 15-25 sec). A small aliquot (20-50 μl) was removed for protein determination by the Coomassie Plus Protein Assay Reagent (Pierce) using BSA as standard. The membrane suspension was aliquoted in pre-cooled (on dry ice) Eppendorf tubes (0.25-1 ml/tube affording approximately 0.5-2 mg of membrane protein/tube). The pellets were frozen and stored at −80° C.
Scintillation proximity [^35S]GTPγS binding assay: Frozen membranes from CHO—C4 cells expressing recombinant human NPY Y2 receptors (2 mg for four 96-well plates) were thawed on ice. Thawed membranes were pipetted into 10 ml of assay buffer (20 mM. HEPES, 10 mM MgCl2, 100 mM NaCl, pH 7.4) and homogenized briefly using a Polytron. The final assay mixture was prepared in 96-well microtiter plates (Isoplate Wallac, Perkin Elmer). The composition of the assay mixtures in a final volume of 250 μl per well was as follows: 20 mM HEPES, 10 mM MgCl2, 100 mM NaCl, pH 7.4, 30 μM GDP, 1 mg/ml BSA (added fresh), 5 μg membrane protein, 1.5 mg Wheatgerm agglutinin SPA beads (Amersham), 0.45 nM [^35S]GTPγS (Amersham, SJ1308, 1000 Ci/mmol, stabilized solution), and the test compounds (agonists and/or antagonists) at the appropriate concentrations. The samples were incubated at room temperature for 90 min by shaking, after which the SPA beads were sedimented by centrifugation in an Eppendorf 5804 centrifuge at 2700 rpm for 10 min at room temperature. After 60 min the plates were counted in a TopCount (Canberra). Basal [^35S]GTPγS binding was measured in the absence of agonist (NPY). Non-specific binding was measured in the presence of excess (10 μM) unlabelled GTPγS (Sigma). Nonspecific binding never exceeded 10% of basal binding and was thus not subtracted from the experimental data. Antagonists were tested for the inhibition of 0.5 nM NPY-stimulated [^35S]GTPγS binding. Antagonist inhibition curves were analyzed by non-linear regression using GraphPad Prism software (Version 4.0, GraphPad Software Inc., CA, USA).
Antagonistic activity of compounds of the present invention was examined by the Scintillation proximity [35S]GTPγS binding assay as described above (inhibition of 0.5 nM NPY-stimulated [^35S]GTPγS binding). The table below represents percentages of inhibition at a concentration of 10 μM.

[3] = test system: normal gastric emptying in mice; test: Normal gastric emptying in mice by Near Infrared FluoRescent (NIRF) imaging; assay type: in vivo, C57/BI6 mice; conditions: imaging 15 minutes after gavage, vehicle control 70%
Experimental: The effect of Example 33, (−)-1-(3,5-Dimethyl-isoxazol-4-yl)-3-{4-[2-(S)-2,5-dioxo-4-phenyl-4-propyl-imidazolidin-1-yl)-acetyl]-3-fluoro-phenyl}-urea, on normal gastric emptying in mice is assessed by means of Near Infrared FluoRescent (NIRF) imaging. The NIRF method is described in detail in the publication by Gremlich et al (J. Mol. Imaging, 2004, 3(4), 303-311). In short, C57/BI6 mice are gavaged 0.2 ml test meal (Isosource Standard meal, Novartis Medical Nutrition, Germany) that contains 7.5 g methylcellulose and 5 g Tentagel fluorescent beads (TentaGel MB-NH2, particle size […], capacity 0.2-0.3 mmol/g; Rapp Polymere, Tubingen, Germany) per 100 ml and immediately returned to their cages. 15 minutes after the gavage mice are anaesthetized using isoflurane and prepared for NIRF imaging. Images from the gastric and intestinal areas are taken and the percentage of food emptied from the stomach is calculated as the ratio of fluorescence measured in the intestines and the stomach. Example 33 was dissolved in 1-methyl-2-pyrrolidon, polyethyleenglycol-300 and 5% dextrose solution (w/v) in the following proportion (v/v): 10%, 30% and 60% respectively and injected intraperitoneally 30 minutes before the administration of the test meal. In the vehicle control group (n=6), 70% of the meal was emptied from the stomach.

SMILES	effect on ethanol self-administration [1]	inhibition at 10 µM [2]	percentage of the meal emptied from the stomach ([3]; 0.3 mg/kg intraperitoneally 30 minutes before test meal)	percentage of the meal emptied from the stomach ([3]; 1 mg/kg intraperitoneally 30 minutes before test meal)
N=C(N)NCCC[C@H](NC(=O)CC1(CC(=O)N2CCN(C3c4ccccc4NC(=O)c4ccccc43)CC2)CCCC1)C(=O)NCCn1c(=O)n(-c2ccccc2)n(-c2ccccc2)c1=O (stereo partly drawn) [BIIE0246]	dose dependently reduced ethanol self-administration			
CCC[C@@]1(c2ccccc2)NC(=O)N(CC(=O)c2ccc(NC(=O)Nc3c(C)noc3C)cc2F)C1=O [Example 33, (−)-1-(3,5-Dimethyl-isoxazol-4-yl)-3-{4-[2-((S)-2,5-dioxo-4-phenyl-4-propyl-imidazolidin-1-yl)-acetyl]-3-fluoro-phenyl}-urea]		95%	80%	81%
Cc1cnn(C)c1CC(=O)Nc1ccc(C(=O)CN2C(=O)NC(c3ccccc3)(c3ccccc3)C2=O)cc1 [Example 49, 2-(2,4-Dimethyl-2H-pyrazol-3-yl)-N-{4-[2-(2,5-dioxo-4,4-diphenyl-imidazolidin-1-yl)-acetyl]-phenyl}-acetamide]		64%		
COc1ccc(F)cc1CC(=O)Nc1ccc(C(=O)CN2C(=O)NC(c3ccccc3)(c3ccccc3)C2=O)cc1 [Example 50, N-{4-[2-(2,5-Dioxo-4,4-diphenyl-imidazolidin-1-yl)acetyl]-phenyl}-2-(5-fluoro-2-methoxy-phenyl)-acetamide]		80%		
